System: 388556-164-R-J1-PDC complex spheroid viability
Assay: Anticancer human tumor 388556-164-R-J1-PDC patient-derived colon adenocarcinoma cell line growth inhibition [RAS]
Conditions: for IC50: curve of first compound; for viability, T/C: stronger effect = lower value
Method in brief: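 Multi-cell-type spheroids: tumor cells plus HUVEC endothelial cells and mesenchymal stem cells. RAS-pathway inhibitors were combined with targeted agents, each dosed in half-log steps down from clinical Cmax, or from 10 microM when Cmax was unknown.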
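Note: spheroids exposed to compound for 7 days before readout.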
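Throughout, for viability, T/C: 100% = DMSO vehicle control luminescence.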

- IC50 (second compound 0.000949 µM): 774 nM
- IC50 (second compound 0.003 µM): 694 nM
- IC50 (second compound 0.00949 µM): 233 nM
- IC50 (second compound 0.03 µM): 67.6 nM
- IC50 (second compound 0.0949 µM): < 31.6 nM
- IC50 (second compound 0.3 µM): < 31.6 nM
SMILES: Cc1nc(N2CCC3(CC2)COC(C)C3N)c(CO)nc1Sc1ccnc(N)c1Cl (configuration not stated) + CCn1c(-c2cc(N3CCN(C)CC3)cnc2C(C)OC)c2c3cc(ccc31)-c1csc(n1)CC(NC(=O)C1CC1C)C(=O)N1CCCC(N1)C(=O)OCC(C)(C)C2
- viability, T/C (second compound 0.000949 µM, first compound 0.0316 µM): 84.3%
- viability, T/C (second compound 0.000949 µM, first compound 0.1 µM): 83.6%
- viability, T/C (second compound 0.000949 µM, first compound 0.316 µM): 60.2%
- viability, T/C (second compound 0.000949 µM, first compound 1 µM): 47.5%
- viability, T/C (second compound 0.000949 µM, first compound 3.16 µM): 43.1%
- viability, T/C (second compound 0.000949 µM, first compound 10 µM): 34.3%
- viability, T/C (second compound 0.003 µM, first compound 0.0316 µM): 81.2%
- viability, T/C (second compound 0.003 µM, first compound 0.1 µM): 70.3%
- viability, T/C (second compound 0.003 µM, first compound 0.316 µM): 57.7%
- viability, T/C (second compound 0.003 µM, first compound 1 µM): 45.8%
- viability, T/C (second compound 0.003 µM, first compound 3.16 µM): 39.2%
- viability, T/C (second compound 0.003 µM, first compound 10 µM): 32.8%
- viability, T/C (second compound 0.00949 µM, first compound 0.0316 µM): 68.7%
- viability, T/C (second compound 0.00949 µM, first compound 0.1 µM): 53.4%
- viability, T/C (second compound 0.00949 µM, first compound 0.316 µM): 52.5%
- viability, T/C (second compound 0.00949 µM, first compound 1 µM): 36.6%
- viability, T/C (second compound 0.00949 µM, first compound 3.16 µM): 35.1%
- viability, T/C (second compound 0.00949 µM, first compound 10 µM): 29.7%
- viability, T/C (second compound 0.03 µM, first compound 0.0316 µM): 56.7%
- viability, T/C (second compound 0.03 µM, first compound 0.1 µM): 45.6%
- viability, T/C (second compound 0.03 µM, first compound 0.316 µM): 39.2%
- viability, T/C (second compound 0.03 µM, first compound 1 µM): 33.4%
- viability, T/C (second compound 0.03 µM, first compound 3.16 µM): 29.9%
- viability, T/C (second compound 0.03 µM, first compound 10 µM): 23.5%
- viability, T/C (second compound 0.0949 µM, first compound 0.0316 µM): 40.6%
- viability, T/C (second compound 0.0949 µM, first compound 0.1 µM): 37.2%
- viability, T/C (second compound 0.0949 µM, first compound 0.316 µM): 30.9%
- viability, T/C (second compound 0.0949 µM, first compound 1 µM): 26.3%
- viability, T/C (second compound 0.0949 µM, first compound 3.16 µM): 25.9%
- viability, T/C (second compound 0.0949 µM, first compound 10 µM): 22.8%
- viability, T/C (second compound 0.3 µM, first compound 0.0316 µM): 28.8%
- viability, T/C (second compound 0.3 µM, first compound 0.1 µM): 30.6%
- viability, T/C (second compound 0.3 µM, first compound 0.316 µM): 25.4%
- viability, T/C (second compound 0.3 µM, first compound 1 µM): 25.7%
- viability, T/C (second compound 0.3 µM, first compound 3.16 µM): 24%
- viability, T/C (second compound 0.3 µM, first compound 10 µM): 20%

Reference: PubChem BioAssay AID2060907 (Molecular Pharmacology Branch, DTP, NCI, 2025)
